Reference: patent US20230143604A1, “QW DOSING OF GIP RECEPTOR AGONIST PEPTIDE COMPOUNDS AND USES THEREOF” (TAKEDA PHARMACEUTICAL COMPANY LIMITED, priority 2020, published 2023)
Read-outs that look alike come from different tables or passages of the source. Positions of bridges follow the written chain, without caps; N, C: chain ends. Non-standard residues stand in square brackets, D forms with d. Chains are numbered I, II in the order given. *: point of attachment. C18 diacid = O=C(O)CCCCCCCCCCCCCCCCC(=O)*; NMeY = CN[C@@H](Cc1ccc(O)cc1)C(=O)O; Aib = CC(C)(N)C(=O)O

Assays:
human GLP-1R = biological target: T1, human GLP-1R (Homo sapiens, UniProt P43220); assay: Human GLP1R agonist activity, intracellular cAMP accumulation; format: cell-based; conditions: HEK-293T cells overexpressing human GLP-1R, 1 hr
T1 construct: HEK-293T cells overexpressing full-length human GLP-1R; FLAG (N); host or cells: HEK-293T
T1 sequence (P43220 24-463): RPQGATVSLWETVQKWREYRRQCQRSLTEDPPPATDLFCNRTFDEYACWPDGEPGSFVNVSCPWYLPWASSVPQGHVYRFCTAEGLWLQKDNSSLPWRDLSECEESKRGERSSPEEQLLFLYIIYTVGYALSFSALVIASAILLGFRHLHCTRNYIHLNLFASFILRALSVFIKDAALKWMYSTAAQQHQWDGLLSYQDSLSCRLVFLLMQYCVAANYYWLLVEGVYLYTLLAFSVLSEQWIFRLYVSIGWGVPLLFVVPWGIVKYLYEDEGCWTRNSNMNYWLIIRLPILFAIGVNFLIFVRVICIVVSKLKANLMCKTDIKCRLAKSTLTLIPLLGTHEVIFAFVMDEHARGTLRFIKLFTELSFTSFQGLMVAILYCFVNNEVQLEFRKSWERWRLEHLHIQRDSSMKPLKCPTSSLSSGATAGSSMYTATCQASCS
How it was run: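 cAMP accumulation is measured by HTRF after a 1 hr, room-temperature, dark exposure of thawed cells (4×10^5 cells/mL in Krebs Ringer buffer) to compound. Activity is scaled between DMSO alone as 0% and 1 nm GLP-1 as 100%.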

physchem = assay: physchem
How it was run: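 Solubility at pH 7.4 determined by stepwise addition of 200 mM phosphate buffer in 100 μL increments to 3 mg peptide, mixing briefly each time, until no insoluble material remained, then measured by liquid chromatography.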

C57BL/6J mice = assay: Oral glucose tolerance test (OGTT); format: in vivo; conditions: 3 nmol/kg s.c., 24 hours before glucose loading
How it was run: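 Peptide or vehicle given s.c. at 0.1, 0.3, 3 or 10 nmol/kg (peptide-dependent), 24 h before oral 50% dextrose at 5 ml/kg unless stated otherwise. Blood glucose read at 0, 15, 30 and 60 min. % inhibition = (1−(AUC cpd−AUC naïve)/(AUC veh−AUC naïve))×100.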

[1] = read-out: Human GLP1R cAMP EC50, HEK293T

Compound	EC50 (human GLP-1R; [1]) [nM]	solubility (physchem; pH 7.4) [mg/mL]	solubility (physchem; pH 7.4, aqueous buffer) [mg/mL]	Oral Glucose Tolerance Test Percent decrease in blood glucose AUC (%) over 60 mins (C57BL/6J mice)	EC50 (human GLP-1R; Human GLP1R cAMP EC50, HEK293T (nM)) [nM]	solubility (physchem; pH 7.4, aqueous buffer, pH 7.4 Phosphate Buffer - Solubility, 200 mM Phosphate buffer pH 7.4) [mg/mL]	solubility (physchem; pH 7.4, solubility in phosphate buffer at pH 7.4, 200 mM phosphate buffer pH 7.4) [mg/mL]
CC[C@H](C)[C@H](NC(=O)[C@H](Cc1ccccc1)NC(=O)[C@@H](NC(=O)CNC(=O)[C@H](CCC(=O)O)NC(=O)C(C)(C)NC(=O)[C@H](Cc1ccc(O)cc1)NC)[C@@H](C)O)C(=O)N[C@@H](CO)C(=O)N[C@@H](CC(=O)O)C(=O)N[C@@H](Cc1ccc(O)cc1)C(=O)N[C@@H](CO)C(=O)N[C@H](C(=O)NC(C)(C)C(=O)N[C@@H](CC(C)C)C(=O)N[C@@H](CC(=O)O)C(=O)N[C@@H](CCCNC(=N)N)C(=O)N[C@@H](CCCCNC(=O)CNC(=O)CNC(=O)CNC(=O)CNC(=O)CNC(=O)CCCCCCCCCCCCCCCCC(=O)O)C(=O)N[C@@H](C)C(=O)N[C@@H](CCC(N)=O)C(=O)NC(C)(C)C(=O)N[C@@H](CC(=O)O)C(=O)N[C@@H](Cc1ccccc1)C(=O)N[C@H](C(=O)N[C@@H](CC(N)=O)C(=O)N[C@@H](Cc1c[nH]c2ccccc12)C(=O)N[C@@H](CC(C)C)C(=O)N[C@@H](CC(C)C)C(=O)N[C@@H](C)C(=O)N[C@@H](CCC(N)=O)C(=O)N[C@@H](CO)C(=O)N1CCC[C@H]1C(=O)NCC(=O)O)C(C)C)[C@@H](C)CC [Compound 88]	13.5	≥ 15	≥ 30	64% (3 nmol/kg)	–	–	–
I: H-[NMeY][Aib]EGTFISDYSIAKDR[Aib]AQ[Aib]DFVNWLLAQSPSSGAPPPS-OH / II: {C18 diacid}-PAPAPGG (amide I:14-II:C) [Compound 105]	–	–	–	82% (3 nmol/kg)	562	≥ 60	≥ 15
CC[C@H](C)[C@H](NC(=O)[C@H](Cc1ccccc1)NC(=O)[C@@H](NC(=O)CNC(=O)[C@H](CCC(=O)O)NC(=O)C(C)(C)NC(=O)[C@H](Cc1ccc(O)cc1)NC)[C@@H](C)O)C(=O)N[C@@H](CO)C(=O)N[C@@H](CC(=O)O)C(=O)N[C@@H](Cc1ccc(O)cc1)C(=O)N[C@@H](CO)C(=O)N[C@H](C(=O)NC(C)(C)C(=O)N[C@@H](CCCCNC(=O)CNC(=O)CNC(=O)CNC(=O)CNC(=O)CNC(=O)CCCCCCCCCCCCCCCCC(=O)O)C(=O)N[C@@H](CC(=O)O)C(=O)N[C@@H](CCCNC(=N)N)C(=O)NC(C)(C)C(=O)N[C@@H](C)C(=O)N[C@@H](CCC(N)=O)C(=O)NC(C)(C)C(=O)N[C@@H](CC(=O)O)C(=O)N[C@@H](Cc1ccccc1)C(=O)N[C@H](C(=O)N[C@@H](CC(N)=O)C(=O)N[C@@H](Cc1c[nH]c2ccccc12)C(=O)N[C@@H](CC(C)C)C(=O)N[C@@H](CC(C)C)C(=O)N[C@@H](C)C(=O)N[C@@H](CCC(N)=O)C(=O)N[C@@H](CO)C(=O)NCC(=O)O)C(C)C)[C@@H](C)CC [Compound 53]	47.9	≥ 15	≥ 30	59% (3 nmol/kg)	–	–	–
CC[C@H](C)[C@H](NC(=O)[C@H](CO)NC(=O)[C@H](Cc1ccc(O)cc1)NC(=O)[C@H](CC(=O)O)NC(=O)[C@H](CO)NC(=O)[C@@H](NC(=O)[C@H](Cc1ccccc1)NC(=O)[C@@H](NC(=O)CNC(=O)[C@H](CCC(=O)O)NC(=O)C(C)(C)NC(=O)[C@H](Cc1ccc(O)cc1)NC)[C@@H](C)O)[C@@H](C)CC)C(=O)N[C@@H](C)C(=O)N[C@@H](CCCCNC(=O)CNC(=O)CNC(=O)CNC(=O)CNC(=O)CNC(=O)CCCCCCCCCCCCCCCCC(=O)O)C(=O)N[C@@H](CC(=O)O)C(=O)N[C@@H](CCCNC(=N)N)C(=O)NC(C)(C)C(=O)N[C@@H](C)C(=O)N[C@@H](CCC(N)=O)C(=O)NC(C)(C)C(=O)N[C@@H](CC(=O)O)C(=O)N[C@@H](Cc1ccccc1)C(=O)N[C@H](C(=O)N[C@@H](CC(N)=O)C(=O)N[C@@H](Cc1c[nH]c2ccccc12)C(=O)N[C@@H](CC(C)C)C(=O)N[C@@H](CC(C)C)C(=O)N[C@@H](C)C(=O)N[C@@H](CCC(N)=O)C(=O)N[C@@H](CCC(N)=O)C(=O)NCC(=O)O)C(C)C [Compound 82]	17.4	≥ 15	≥ 30	72% (3 nmol/kg)	–	–	–
CC[C@H](C)[C@H](NC(=O)[C@H](Cc1ccccc1)NC(=O)[C@@H](NC(=O)CNC(=O)[C@H](CCC(=O)O)NC(=O)C(C)(C)NC(=O)[C@@H](N)Cc1ccc(O)cc1)[C@@H](C)O)C(=O)N[C@@H](CO)C(=O)N[C@@H](CC(=O)O)C(=O)N[C@@H](Cc1ccc(O)cc1)C(=O)N[C@@H](CO)C(=O)N[C@H](C(=O)NC(C)(C)C(=O)N[C@@H](CCCCNC(=O)CNC(=O)CNC(=O)CNC(=O)CNC(=O)CNC(=O)CCCCCCCCCCCCCCCCC(=O)O)C(=O)N[C@@H](CC(=O)O)C(=O)N[C@@H](CCCNC(=N)N)C(=O)NC(C)(C)C(=O)N[C@@H](C)C(=O)N[C@@H](CCC(N)=O)C(=O)NC(C)(C)C(=O)N[C@@H](CC(=O)O)C(=O)N[C@@H](Cc1ccccc1)C(=O)N[C@H](C(=O)N[C@@H](CCC(=O)O)C(=O)N[C@@H](Cc1c[nH]c2ccccc12)C(=O)N[C@@H](CC(C)C)C(=O)N[C@@H](CC(C)C)C(=O)N[C@@H](C)C(=O)N[C@@H](CCC(N)=O)C(=O)N[C@@H](CCCNC(=N)N)C(=O)NCC(=O)O)C(C)C)[C@@H](C)CC [Compound 139]	8.91	≥ 15	≥ 30	93% (3 nmol/kg)	–	–	–
CC[C@H](C)[C@H](NC(=O)[C@H](Cc1ccccc1)NC(=O)[C@@H](NC(=O)CNC(=O)[C@H](CCC(=O)O)NC(=O)C(C)(C)NC(=O)[C@H](Cc1ccc(O)cc1)NC)[C@@H](C)O)C(=O)N[C@@H](CO)C(=O)N[C@@H](CC(=O)O)C(=O)N[C@@H](Cc1ccc(O)cc1)C(=O)N[C@@H](CO)C(=O)N[C@H](C(=O)NC(C)(C)C(=O)N[C@@H](CCCCNC(=O)CNC(=O)CNC(=O)CNC(=O)CNC(=O)CNC(=O)CCCCCCCCCCCCCCCCC(=O)O)C(=O)N[C@@H](CC(=O)O)C(=O)N[C@@H](CCCNC(=N)N)C(=O)NC(C)(C)C(=O)N[C@@H](C)C(=O)N[C@@H](CCC(N)=O)C(=O)NC(C)(C)C(=O)N[C@@H](CC(=O)O)C(=O)N[C@@H](Cc1ccccc1)C(=O)N[C@H](C(=O)N[C@@H](CC(N)=O)C(=O)N[C@@H](Cc1c[nH]c2ccccc12)C(=O)N[C@@H](CC(C)C)C(=O)N[C@@H](CC(C)C)C(=O)N[C@@H](C)C(=O)N[C@@H](CCC(N)=O)C(=O)N[C@@H](CO)C(=O)N1CCC[C@H]1C(=O)NCC(=O)O)C(C)C)[C@@H](C)CC [Compound 83]	66.1	≥ 15	≥ 30	68% (3 nmol/kg)	–	–	–
CC[C@H](C)[C@H](NC(=O)[C@H](Cc1ccccc1)NC(=O)[C@@H](NC(=O)CNC(=O)[C@H](CCC(=O)O)NC(=O)C(C)(C)NC(=O)[C@@H](N)Cc1ccc(O)cc1)[C@@H](C)O)C(=O)N[C@@H](CO)C(=O)N[C@@H](CC(=O)O)C(=O)N[C@@H](Cc1ccc(O)cc1)C(=O)N[C@@H](CO)C(=O)N[C@H](C(=O)NC(C)(C)C(=O)N[C@@H](CCCCNC(=O)CNC(=O)CNC(=O)CNC(=O)CNC(=O)CNC(=O)CCCCCCCCCCCCCCCCC(=O)O)C(=O)N[C@@H](CC(=O)O)C(=O)N[C@@H](CCCNC(=N)N)C(=O)N[C@@H](C)C(=O)N[C@@H](C)C(=O)N[C@@H](CCC(N)=O)C(=O)NC(C)(C)C(=O)N[C@@H](CC(=O)O)C(=O)N[C@@H](Cc1ccccc1)C(=O)N[C@H](C(=O)N[C@@H](CCC(=O)O)C(=O)N[C@@H](Cc1c[nH]c2ccccc12)C(=O)N[C@@H](CC(C)C)C(=O)N[C@@H](CC(C)C)C(=O)N[C@@H](C)C(=O)N[C@@H](CCC(N)=O)C(=O)N[C@@H](CCCNC(=N)N)C(=O)NCC(=O)O)C(C)C)[C@@H](C)CC [Compound 145]	9.33	≥ 15	≥ 30	52% (3 nmol/kg)	–	–	–
